According to patent US7271187B2, “Compositions and methods for promoting tissue regeneration” (priority 2000, dated 2007):

Tests used:
[1] = tested on: mixed embryonic day 18 (E18) rat neural cultures; experiment: Embryonic day 18 rat cortical culture, glutamate-killed neurons, immunostaining for neuronal markers; format: cell-based
From the text: The method of the invention is exemplified by a first embodiment wherein administration of a single in vitro dose of N-[4-[(4-fluorophenyl)sulfonyl]phenyl]-acetamide, a compound according to Formula (II), to a population of mixed embryonic day 18 (“E18”) rat neural cultures without living neurons results in a protein expression pattern within the culture that is indicative of development of neuronal cells from progenitor cells. The embryonic neural cultures are first subjected to glutamate excitotoxic exposure sufficient to result in neuronal cell death prior to administration of the compound. Cultures obtained from E18 rat embryos are allowed to mature in vitro for 10 days at which time they are treated with […] glutamate to kill the neurons. Eight days later, cultures are treated with a range of doses of the compound N-[4-[(4-fluorophenyl)sulfonyl]phenyl]acetamide from 0.01 μg/ml to 100 μg/ml. In comparing control cultures and drug treated cultures, an antigenic marker for neuronal progenitor cells, e-NCAM (as detected by immunohistochemical methods), is elevated one week after treatment of the culture with N-[4-[(4-fluorophenyl)sulfonyl]phenyl]-acetamide. […] In contrast, few cells in untreated cultures are observed expressing MAP-II immunoreactivity at 3 weeks post-treatment. […] In control cultures, few cells are observed expressing intense MAP-II and beta-tubulin immunoreactivity. […] This expression pattern represents the normal sequence of events as neuronal cells develop from progenitor cells.
CNS tissue was harvested from embryonic day 18 (E-18) rat pups (Taconic Labs) using sterile technique and was stored in ice cold Hank's Balanced Salt Solution (HBSS-Gibco). Brains were removed from the cranium of 10 embryos, and the meninges removed to expose the underlying cortex. Cortex was isolated from the rest of the brain and stored in ice cold HBSS. After all material was collected, the tissue was minced and trypsinized using 0.1% trypsin (Sigma) for 30 minutes at 37° C. Trypsin action was inhibited by adding 0.5 mg/ml soybean trypsin inhibitor (Gibco). Tissue was rinsed with HBSS and triturated using a flame narrowed Pasteur pipette coated with fetal bovine serum (FBS—Media Tech).
Dissociated cells were counted and plated into 24 well cluster plates in DMEM (MediaTech) plus 10% FBS (Media Tech) at a density of 5×10^5 cells per well. Twenty-four well cluster plates were coated with poly-D-lysine prior to adding cells. Cultures were maintained for 10 days in vitro using a 3-4 day feeding schedule where half the media was removed and replaced with fresh media.
On in vitro day (IVD) 10, glutamate (Gibco) (110 μl of 20 mM added to wells that contained 1 ml of media) was add to all wells except control wells to a final concentration 2 mM. Control wells were fed an equal amount of media minus the L-glutamate. Cultures were maintained for an additional 9 days using a 3-4 feeding schedule. On IVD-18, media was removed and replaced with Neurobasal (Gibco)+B27 supplements (Gibco) and L-glutamine (Media Tech). The next day, IVD-19, N-[4-[(4-fluorophenyl)sulfonyl]phenyl]acetamide dissolved in 2-hydroxypropyl-β-cyclodextrin (Sigma) was added to cultures such that the final concentrations of the compound were either 100 μg/ml, 10 μg/ml, 1 μg/ml and 0.1 μg/ml or 10 μg/ml, 1 μg/ml 0.1 μg/ml and 0.01 μg/ml. Two sets of control wells were included in each experiment. One set of glutamate treated wells received an equal dose of 2-hydroxypropyl-β-cyclodextrin but without N-[4-[(4-fluorophenyl)sulfonyl]phenyl]acetamide. […] After it became apparent that the optimal dose was approximately 0.1 μg/ml to 1 μg/ml N-[4-[(4-fluorophenyl)sulfonyl]phenyl]acetamide, the concentration of drug added to the control wells was reduced to 1 μg/ml.
Cultures were maintained for up to an additional 10 weeks. […]

[2] = tested on: bone marrow cells; experiment: Nestin expression in bone marrow cells after systemic administration; format: in vivo, rat; settings: bone marrow harvested 3-7 days after systemic administration; vs non-treated rats
From the text: In some embodiments of the invention, cells, preferably bone marrow cells, can be transferred from a first animal treated according to methods of the invention to a site of chronic spinal cord injury in the first animal or in a second animal.

[3] = 4 weeks post treatment, vs control cultures

## CC(=O)Nc1ccc(S(=O)(=O)c2ccc(F)cc2)cc1 [N-[4-[(4-fluorophenyl)sulfonyl]phenyl]acetamide]
[1]; 3 weeks post treatment, vs untreated cultures
  MAP-II expression: Low levels of MAP-II expression are also detected at 3 weeks post treatment in a large number of cells
[1]; [3]
  MAP-II immunoreactivity: a large number of cells treated with the compound can be observed expressing intense MAP-II and beta-tubulin immunoreactivity
  beta-tubulin immunoreactivity: a large number of cells treated with the compound can be observed expressing intense MAP-II and beta-tubulin immunoreactivity
[1]; 6 weeks post treatment, vs untreated cultures
  phosphorylated neurofilament protein (NF-PO4) immunoreactivity: can be observed in numerous neurites
[1]; one week after treatment, drug treated vs control cultures, 0.01 μg/ml to 100 μg/ml
  e-NCAM expression (immunohistochemical): elevated
[1]; ten weeks post treatment
  expression of Low affinity Neuron Growth Factor Receptor: show expression of the Low affinity Neuron Growth Factor Receptor
[1]; three weeks post treatment, vs untreated control cultures
  beta-tubulin expression: elevated levels of beta-tubulin expression are detected in large numbers of cells
[2]
  expression of Nestin in bone marrow cells: increased expression of Nestin
